From ChEMBL document CHEMBL1201862, “PubChem BioAssay data set” (2004)
Active and inactive are the calls of the source.

Experiments:
Coagulation factor XII = molecular target: T1, Coagulation factor XII (Homo sapiens, UniProt P00748); format: functional;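 further: activated factor XIIa alpha cleaving a fluorogenic AMC peptide substrate; inhibitor potency from loss of enzyme activity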
T1 sequence (P00748 whole entry): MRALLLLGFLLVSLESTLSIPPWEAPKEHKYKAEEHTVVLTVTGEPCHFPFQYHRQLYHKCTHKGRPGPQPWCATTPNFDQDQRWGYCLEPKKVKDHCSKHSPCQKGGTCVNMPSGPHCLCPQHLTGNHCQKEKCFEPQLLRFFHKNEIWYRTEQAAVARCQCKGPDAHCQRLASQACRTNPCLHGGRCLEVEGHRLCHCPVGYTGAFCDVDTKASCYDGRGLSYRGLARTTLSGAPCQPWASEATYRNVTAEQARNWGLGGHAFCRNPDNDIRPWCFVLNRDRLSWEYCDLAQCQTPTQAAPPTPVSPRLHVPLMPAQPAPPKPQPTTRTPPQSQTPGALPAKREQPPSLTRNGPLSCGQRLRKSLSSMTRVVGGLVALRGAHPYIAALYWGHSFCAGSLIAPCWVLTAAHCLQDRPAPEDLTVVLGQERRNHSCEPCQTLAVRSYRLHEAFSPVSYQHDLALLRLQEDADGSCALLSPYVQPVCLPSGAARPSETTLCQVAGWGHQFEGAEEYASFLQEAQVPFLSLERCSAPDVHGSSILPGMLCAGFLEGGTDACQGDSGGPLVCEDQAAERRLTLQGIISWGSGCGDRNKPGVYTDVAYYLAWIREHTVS

Protein Wnt-3a = Protein Wnt-3a (Mus musculus, UniProt P27467); assay: antagonism of Wnt3a pathway luciferase reporter – Wnt-LIGHT cells, luminescence, selectivity assay for Gli-SUFU antagonist project, dose response (AID 651570); format: functional; conditions: read-out: IC50_Mean;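 further: Wnt-LIGHT reporter cells stimulated with conditioned medium from Wnt3a-producing cells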
Sequence of Protein Wnt-3a (P27467 whole entry): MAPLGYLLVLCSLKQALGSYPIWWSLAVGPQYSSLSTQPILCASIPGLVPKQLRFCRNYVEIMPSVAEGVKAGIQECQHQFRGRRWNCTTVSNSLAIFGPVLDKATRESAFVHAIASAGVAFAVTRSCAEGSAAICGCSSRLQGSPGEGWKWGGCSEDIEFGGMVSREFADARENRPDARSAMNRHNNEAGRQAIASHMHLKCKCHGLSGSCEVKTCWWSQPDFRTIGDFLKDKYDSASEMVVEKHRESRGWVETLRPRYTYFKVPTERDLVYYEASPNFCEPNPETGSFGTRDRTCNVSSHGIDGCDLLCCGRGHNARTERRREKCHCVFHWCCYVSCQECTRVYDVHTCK

[1] = molecular target: T2, High affinity choline transporter 1 (Homo sapiens, UniProt Q9GZV3); assay: human choline transporter blockers, potency – cell-based, 5-point CRC, membrane potential dye, dose response (AID 504840); format: functional
T2 sequence (Q9GZV3 whole entry): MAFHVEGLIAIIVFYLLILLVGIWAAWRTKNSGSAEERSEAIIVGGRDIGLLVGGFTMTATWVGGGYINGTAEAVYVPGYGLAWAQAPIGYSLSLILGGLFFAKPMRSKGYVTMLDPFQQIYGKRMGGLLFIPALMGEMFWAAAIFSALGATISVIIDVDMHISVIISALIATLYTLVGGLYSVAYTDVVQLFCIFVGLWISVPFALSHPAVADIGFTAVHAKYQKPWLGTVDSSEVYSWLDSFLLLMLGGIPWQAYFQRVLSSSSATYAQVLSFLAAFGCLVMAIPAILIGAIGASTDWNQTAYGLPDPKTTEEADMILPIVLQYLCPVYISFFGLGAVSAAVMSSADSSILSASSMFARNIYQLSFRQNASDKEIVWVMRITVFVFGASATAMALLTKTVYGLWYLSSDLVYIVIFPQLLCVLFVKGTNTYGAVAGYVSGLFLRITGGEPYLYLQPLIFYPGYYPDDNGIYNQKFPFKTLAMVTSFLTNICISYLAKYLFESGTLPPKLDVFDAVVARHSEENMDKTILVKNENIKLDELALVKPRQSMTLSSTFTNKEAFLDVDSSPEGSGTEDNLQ

[2] = molecular target: T2, High affinity choline transporter 1; assay: human choline transporter blockers, potency – cell-based, 10-point CRC, membrane potential dye, dose response (AID 588401); format: functional;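 further: membrane potential dye fluorescence of choline-evoked depolarization via CHT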
Estrogen receptor beta = Estrogen receptor beta (Homo sapiens, UniProt Q92731);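 further: recombinant ER-beta bound to coactivator SRC1 peptide in presence of estradiol agonist; inhibitors block coactivator peptide binding and lower the FRET signal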
Sequence of Estrogen receptor beta (Q92731 whole entry): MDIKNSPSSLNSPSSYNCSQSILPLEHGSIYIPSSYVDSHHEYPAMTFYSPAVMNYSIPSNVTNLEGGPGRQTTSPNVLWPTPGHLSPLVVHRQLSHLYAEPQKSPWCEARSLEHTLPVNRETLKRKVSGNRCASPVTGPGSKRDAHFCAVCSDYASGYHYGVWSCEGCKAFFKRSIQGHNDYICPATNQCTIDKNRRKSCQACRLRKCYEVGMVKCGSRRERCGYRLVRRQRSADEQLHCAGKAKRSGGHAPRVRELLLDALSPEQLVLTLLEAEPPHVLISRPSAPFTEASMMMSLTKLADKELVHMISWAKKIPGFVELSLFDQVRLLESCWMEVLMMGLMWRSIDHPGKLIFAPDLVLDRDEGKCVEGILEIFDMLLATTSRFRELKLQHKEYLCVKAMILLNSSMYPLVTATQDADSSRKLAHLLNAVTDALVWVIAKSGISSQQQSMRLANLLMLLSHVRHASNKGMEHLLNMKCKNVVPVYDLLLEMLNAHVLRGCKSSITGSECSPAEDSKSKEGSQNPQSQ

Melanocortin receptor 4 [3] = molecular target: T3, Melanocortin receptor 4 (Homo sapiens, UniProt P32245); format: functional, cell-based;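 further: Cell-based assay with luminescence read-out, confirmatory dose-response testing for agonist activity of biased ligands at MC4R; human U2OS cells with tagged receptor and beta-arrestin; potency of agonists that increase receptor coupling to beta-arrestin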
T3 sequence (P32245 whole entry): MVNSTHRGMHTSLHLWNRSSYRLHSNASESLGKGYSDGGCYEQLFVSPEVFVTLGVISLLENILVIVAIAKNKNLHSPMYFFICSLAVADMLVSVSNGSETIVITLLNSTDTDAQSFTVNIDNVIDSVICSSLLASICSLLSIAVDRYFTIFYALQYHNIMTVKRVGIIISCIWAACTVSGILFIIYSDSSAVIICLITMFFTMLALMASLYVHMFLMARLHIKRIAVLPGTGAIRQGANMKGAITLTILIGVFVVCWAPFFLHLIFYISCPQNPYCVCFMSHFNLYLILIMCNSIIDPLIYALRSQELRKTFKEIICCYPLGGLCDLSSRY

Cytochrome P450 2D6 = Cytochrome P450 2D6 (Homo sapiens, UniProt P10635);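 further: CYP2D6 member of a cytochrome P450 panel assay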
Cytochrome P450 3A4 = Cytochrome P450 3A4 (Homo sapiens, UniProt P08684);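 further: CYP3A4 tested as one member of a cytochrome P450 panel screen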
Sequence of Cytochrome P450 3A4 (P08684 whole entry): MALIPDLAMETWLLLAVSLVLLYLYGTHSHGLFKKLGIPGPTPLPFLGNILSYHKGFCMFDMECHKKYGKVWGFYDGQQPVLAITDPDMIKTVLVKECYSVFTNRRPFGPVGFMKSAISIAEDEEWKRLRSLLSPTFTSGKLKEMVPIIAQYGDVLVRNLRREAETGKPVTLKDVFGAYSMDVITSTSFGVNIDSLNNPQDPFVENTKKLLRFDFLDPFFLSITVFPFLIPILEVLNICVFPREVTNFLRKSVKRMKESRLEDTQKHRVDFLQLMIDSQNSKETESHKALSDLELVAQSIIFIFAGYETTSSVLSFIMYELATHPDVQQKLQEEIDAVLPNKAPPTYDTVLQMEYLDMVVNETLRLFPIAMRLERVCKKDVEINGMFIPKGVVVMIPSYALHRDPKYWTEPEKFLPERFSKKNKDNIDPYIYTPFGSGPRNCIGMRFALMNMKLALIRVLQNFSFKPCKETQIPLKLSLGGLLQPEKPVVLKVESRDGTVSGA

Cytochrome P450 2C9 = Cytochrome P450 2C9 (Homo sapiens, UniProt P11712)
Melanocortin receptor 4 [4] = molecular target: T3, Melanocortin receptor 4; assay: inhibitors of MC4R cAMP signaling – cell-based, TR-FRET, biased antagonists, dose response (AID 602298); format: functional;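 further: antagonist potency against agonist-stimulated cAMP production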
[5] = cAMP pathway inhibition in counterscreen cell line – TR-FRET cAMP detection, counter-screen for MC4R biased antagonist project, dose response (AID 602305); format: functional, cell-based;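 further: U2OS cells stimulated with forskolin near its EC80 as the cAMP inducer; potency is for inhibition of forskolin-stimulated cAMP signaling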
[6] = molecular target: Adenosylmethionine-8-amino-7-oxononanoate aminotransferase (Mycobacterium tuberculosis, UniProt P9WQ81); assay: Mycobacterium tuberculosis BioA enzyme inhibitor Measured in Biochemical System Using Plate Reader - 2163-02_Inhibitor_Dose_CherryPick_Activity.; format: functional, Mycobacterium tuberculosis UT205
Sequence of Adenosylmethionine-8-amino-7-oxononanoate aminotransferase (P9WQ81 whole entry): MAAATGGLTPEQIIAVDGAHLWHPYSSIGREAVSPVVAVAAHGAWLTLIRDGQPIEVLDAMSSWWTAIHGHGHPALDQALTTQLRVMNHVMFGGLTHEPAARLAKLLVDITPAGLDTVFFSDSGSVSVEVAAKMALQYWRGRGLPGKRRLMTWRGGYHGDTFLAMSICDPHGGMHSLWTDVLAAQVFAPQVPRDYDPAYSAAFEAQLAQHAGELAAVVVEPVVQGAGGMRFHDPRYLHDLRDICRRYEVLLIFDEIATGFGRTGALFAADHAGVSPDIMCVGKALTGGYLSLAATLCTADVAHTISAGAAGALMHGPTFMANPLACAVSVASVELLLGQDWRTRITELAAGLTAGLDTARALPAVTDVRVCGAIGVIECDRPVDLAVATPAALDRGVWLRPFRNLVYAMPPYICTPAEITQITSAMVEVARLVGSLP

[7] = suppression of NO production in INS-1E cells – cell-based, Griess absorbance, dry powder, set 3, dose response (AID 488870); format: functional; conditions: Rattus norvegicus
INS1 = assay: suppression of NO production in INS-1E cells – cell-based, Griess absorbance, dry powder, set 2, dose response (AID 488868); format: functional; conditions: Rattus norvegicus
[8] = P. falciparum Dd2 growth inhibitors, dose response, SYBR Green, cherry-picked samples (AID 1159567); format: functional, cell-based
[9] = molecular target: Aryl hydrocarbon receptor (Homo sapiens, UniProt P35869); conditions: Potency;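 further: confirmatory quantitative high-throughput screen measuring activation of the AhR signaling pathway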
Sequence of Aryl hydrocarbon receptor (P35869 whole entry): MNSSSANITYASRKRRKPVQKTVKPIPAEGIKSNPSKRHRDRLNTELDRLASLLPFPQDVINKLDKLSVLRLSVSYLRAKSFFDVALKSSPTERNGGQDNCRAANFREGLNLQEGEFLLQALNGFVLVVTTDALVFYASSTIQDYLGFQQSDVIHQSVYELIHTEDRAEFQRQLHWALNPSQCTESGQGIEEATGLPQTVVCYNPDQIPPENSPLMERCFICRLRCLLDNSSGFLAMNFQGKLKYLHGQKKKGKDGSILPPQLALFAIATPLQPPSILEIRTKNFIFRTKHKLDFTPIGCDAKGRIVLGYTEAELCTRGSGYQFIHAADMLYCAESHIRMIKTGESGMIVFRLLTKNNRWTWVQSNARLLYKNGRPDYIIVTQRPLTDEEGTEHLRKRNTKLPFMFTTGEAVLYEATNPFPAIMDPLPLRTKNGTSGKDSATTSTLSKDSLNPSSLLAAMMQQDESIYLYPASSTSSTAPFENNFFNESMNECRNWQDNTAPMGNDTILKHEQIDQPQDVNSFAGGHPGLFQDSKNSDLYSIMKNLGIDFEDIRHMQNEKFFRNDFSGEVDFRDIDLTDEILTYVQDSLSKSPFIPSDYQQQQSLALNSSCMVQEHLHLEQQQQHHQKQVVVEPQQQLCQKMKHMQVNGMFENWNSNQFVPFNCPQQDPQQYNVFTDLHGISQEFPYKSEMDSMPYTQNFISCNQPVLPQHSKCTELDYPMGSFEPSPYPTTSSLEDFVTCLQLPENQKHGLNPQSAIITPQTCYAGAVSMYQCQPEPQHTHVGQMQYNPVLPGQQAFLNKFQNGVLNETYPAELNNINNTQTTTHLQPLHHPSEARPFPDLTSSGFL

[10] = molecular target: T4, Apoptotic protease-activating factor 1 (Homo sapiens, UniProt O14727); assay: SAR analysis of small molecule Activators of Apaf-1 in a Fluorescent assay.; format: functional; conditions: read-out: EC50_Mean;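 further: caspase-3 cleavage of fluorogenic Rh110 DEVD substrate downstream of apoptosome activation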
T4 sequence (O14727 whole entry): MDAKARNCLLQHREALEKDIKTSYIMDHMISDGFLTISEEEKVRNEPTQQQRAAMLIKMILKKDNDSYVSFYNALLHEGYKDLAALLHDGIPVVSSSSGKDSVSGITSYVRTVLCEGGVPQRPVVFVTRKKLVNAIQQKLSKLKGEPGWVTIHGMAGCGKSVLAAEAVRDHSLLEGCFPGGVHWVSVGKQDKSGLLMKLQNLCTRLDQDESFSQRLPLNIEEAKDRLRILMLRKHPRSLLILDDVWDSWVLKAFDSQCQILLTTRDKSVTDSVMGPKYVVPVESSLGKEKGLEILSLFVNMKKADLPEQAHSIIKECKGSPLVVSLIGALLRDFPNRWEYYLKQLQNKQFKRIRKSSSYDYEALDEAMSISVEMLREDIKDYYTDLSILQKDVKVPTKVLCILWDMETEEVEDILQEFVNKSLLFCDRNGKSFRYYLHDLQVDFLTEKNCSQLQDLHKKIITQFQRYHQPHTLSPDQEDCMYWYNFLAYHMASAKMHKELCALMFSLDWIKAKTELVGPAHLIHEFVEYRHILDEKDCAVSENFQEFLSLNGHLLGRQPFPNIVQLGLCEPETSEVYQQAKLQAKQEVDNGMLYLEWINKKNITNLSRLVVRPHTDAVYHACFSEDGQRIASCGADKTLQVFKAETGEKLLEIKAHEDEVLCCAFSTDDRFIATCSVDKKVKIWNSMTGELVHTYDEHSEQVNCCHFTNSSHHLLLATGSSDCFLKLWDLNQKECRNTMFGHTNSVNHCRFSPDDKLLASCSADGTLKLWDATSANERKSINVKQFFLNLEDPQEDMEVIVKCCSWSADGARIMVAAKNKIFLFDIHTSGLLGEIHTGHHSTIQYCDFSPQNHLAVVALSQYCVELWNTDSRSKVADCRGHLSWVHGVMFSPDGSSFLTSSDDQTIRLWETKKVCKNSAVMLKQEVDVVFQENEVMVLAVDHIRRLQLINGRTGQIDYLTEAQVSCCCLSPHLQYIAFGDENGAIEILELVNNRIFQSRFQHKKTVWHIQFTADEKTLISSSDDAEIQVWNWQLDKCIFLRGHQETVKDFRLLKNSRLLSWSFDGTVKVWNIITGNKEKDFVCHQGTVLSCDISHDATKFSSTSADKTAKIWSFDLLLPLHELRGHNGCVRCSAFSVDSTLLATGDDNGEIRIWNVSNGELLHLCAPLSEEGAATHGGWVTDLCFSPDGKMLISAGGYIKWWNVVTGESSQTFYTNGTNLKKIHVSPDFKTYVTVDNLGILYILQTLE

Beta Lactamase = Beta Lactamase (Pseudomonas aeruginosa, UniProt Q932Y6);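 further: confirmatory high-throughput screen measuring VIM-2 metallo-beta-lactamase inhibition by epi-absorbance in dose response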
Sequence of Beta Lactamase (Q932Y6 whole entry): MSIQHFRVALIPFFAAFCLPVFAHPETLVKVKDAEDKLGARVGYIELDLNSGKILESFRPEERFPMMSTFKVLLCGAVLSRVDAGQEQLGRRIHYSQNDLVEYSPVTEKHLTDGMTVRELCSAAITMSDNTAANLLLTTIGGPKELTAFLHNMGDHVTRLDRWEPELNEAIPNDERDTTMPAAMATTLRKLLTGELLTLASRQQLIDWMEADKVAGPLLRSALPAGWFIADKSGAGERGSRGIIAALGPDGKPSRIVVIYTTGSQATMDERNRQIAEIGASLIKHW

BJ [11] = assay: BJ-TERT fibroblast viability loss – cell-based, RAS-independent, luminescence, dose response (AID 1933); format: functional; conditions: Homo sapiens
BJ [12] = assay: cells; format: functional, cell-based; conditions: Homo sapiens
Beta-lactamase [13] = molecular target: Beta-lactamase (Pseudomonas aeruginosa, UniProt Q79MP6);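 further: biochemical dose-response test of metallo-beta-lactamase enzyme inhibition, read out by epi-absorbance; purified recombinant IMP-1 metallo-beta-lactamase with nitrocefin as substrate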
Sequence of Beta-lactamase (Pseudomonas aeruginosa, UniProt Q79MP6) (Q79MP6 whole entry): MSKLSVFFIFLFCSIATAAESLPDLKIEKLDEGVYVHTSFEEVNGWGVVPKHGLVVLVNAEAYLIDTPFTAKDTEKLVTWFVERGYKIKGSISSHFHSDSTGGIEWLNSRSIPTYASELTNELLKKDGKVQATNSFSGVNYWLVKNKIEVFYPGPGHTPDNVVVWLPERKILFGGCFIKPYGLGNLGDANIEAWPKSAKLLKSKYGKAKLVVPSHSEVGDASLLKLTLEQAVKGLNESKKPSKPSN

BJ [14] = assay: BJ-TERT-LT-ST fibroblast viability loss – cell-based, RAS-independent, luminescence, dose response (AID 1935); format: functional; conditions: Homo sapiens;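 further: BJ fibroblasts immortalized with TERT plus LT and ST oncogenes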
Beta-lactamase [15] = molecular target: Beta-lactamase (Salmonella choleraesuis (strain SC-B67), UniProt Q5J463)
Sequence of Beta-lactamase (Salmonella choleraesuis (strain SC-B67), UniProt Q5J463) (Q5J463 whole entry): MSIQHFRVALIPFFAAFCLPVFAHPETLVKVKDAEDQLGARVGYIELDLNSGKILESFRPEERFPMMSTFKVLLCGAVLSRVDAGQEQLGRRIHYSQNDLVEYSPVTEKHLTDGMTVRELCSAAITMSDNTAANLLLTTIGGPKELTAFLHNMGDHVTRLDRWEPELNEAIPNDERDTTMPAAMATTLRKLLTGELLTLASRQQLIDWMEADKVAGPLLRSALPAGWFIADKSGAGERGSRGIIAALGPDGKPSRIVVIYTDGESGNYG

[16] = DRD fibroblast viability loss – cell-based, non-viral oncogenic, luminescence, dose response (AID 1934); format: functional; conditions: Homo sapiens
Troponin, cardiac muscle = Troponin, cardiac muscle (Homo sapiens, UniProt P19429+P45379+P63316); assay: Fluorescence-based biochemical high throughput dose response assay for activators of the calcium sensitivity of cardiac Regulated Thin Filaments (RTF). [Related pubchem assays (depositor defined):AID493008, AID493018, AID504382, AID504383]; format: protein-complex assay
[17] = molecular target: T5, Endoribonuclease toxin MazF (Escherichia coli K-12, UniProt P0AE70); assay: activation of MazEF endoribonuclease cleavage – biochemical, fluorescence, single-stranded RNA substrate, uHTS hits, dose response (AID 588481); format: functional
T5 sequence (P0AE70 whole entry): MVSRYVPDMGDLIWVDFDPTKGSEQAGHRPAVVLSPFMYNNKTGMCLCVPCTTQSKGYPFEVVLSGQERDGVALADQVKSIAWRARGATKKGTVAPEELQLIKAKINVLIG

[18] = molecular target: T5, Endoribonuclease toxin MazF; assay: substrate-only fluorescence increase artefacts – biochemical, single-stranded RNase substrate, counter-screen for MazEF activator project, dose response (AID 588502); format: functional
Aurora kinase A = Aurora kinase A (Homo sapiens, UniProt O14965); format: functional;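 further: value from the Navigating the Kinome kinase panel profiling, panel entry STK6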
Sequence of Aurora kinase A (O14965 whole entry): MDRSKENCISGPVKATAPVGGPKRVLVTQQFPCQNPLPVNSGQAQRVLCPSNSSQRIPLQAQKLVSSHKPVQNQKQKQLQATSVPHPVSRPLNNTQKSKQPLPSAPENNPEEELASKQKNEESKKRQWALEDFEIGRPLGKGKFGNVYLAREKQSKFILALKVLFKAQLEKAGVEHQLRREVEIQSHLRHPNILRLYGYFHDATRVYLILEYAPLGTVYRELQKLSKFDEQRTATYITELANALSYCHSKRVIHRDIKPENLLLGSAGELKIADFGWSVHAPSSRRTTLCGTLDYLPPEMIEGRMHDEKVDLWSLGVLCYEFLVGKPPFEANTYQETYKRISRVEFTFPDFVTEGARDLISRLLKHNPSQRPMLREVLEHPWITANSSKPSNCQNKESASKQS

Aurora kinase B = Aurora kinase B (Homo sapiens, UniProt Q96GD4); format: functional
Sequence of Aurora kinase B (Q96GD4 whole entry): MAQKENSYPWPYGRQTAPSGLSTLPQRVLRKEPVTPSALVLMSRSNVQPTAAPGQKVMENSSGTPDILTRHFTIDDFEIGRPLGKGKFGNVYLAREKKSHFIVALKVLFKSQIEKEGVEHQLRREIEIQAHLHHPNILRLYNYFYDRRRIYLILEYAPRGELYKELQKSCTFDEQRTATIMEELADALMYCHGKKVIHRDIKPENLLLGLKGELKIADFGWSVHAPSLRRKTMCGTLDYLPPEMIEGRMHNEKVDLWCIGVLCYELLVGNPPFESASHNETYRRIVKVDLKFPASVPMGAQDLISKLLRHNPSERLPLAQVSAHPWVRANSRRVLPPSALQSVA

[19] = molecular target: Serine/threonine-protein kinase pim-1 (Homo sapiens, UniProt P11309); format: functional
Sequence of Serine/threonine-protein kinase pim-1 (P11309 whole entry): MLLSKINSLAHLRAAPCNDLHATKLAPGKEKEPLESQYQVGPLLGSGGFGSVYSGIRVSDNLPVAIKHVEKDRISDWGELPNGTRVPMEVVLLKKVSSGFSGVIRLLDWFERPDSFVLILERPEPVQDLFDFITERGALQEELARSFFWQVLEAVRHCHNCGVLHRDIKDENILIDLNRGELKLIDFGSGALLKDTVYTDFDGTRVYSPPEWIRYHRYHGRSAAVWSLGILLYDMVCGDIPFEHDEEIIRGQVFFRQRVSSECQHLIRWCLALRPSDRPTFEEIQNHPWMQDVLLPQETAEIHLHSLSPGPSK

[20] = molecular target: Receptor-type tyrosine-protein kinase FLT3 (Homo sapiens, UniProt P36888); format: functional;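 further: FLT3 was tested as one member of a kinome-wide kinase panel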
[21] = molecular target: T6, Mitochondrial peptide methionine sulfoxide reductase (Bos taurus, UniProt P54149); format: functional;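 further: absorbance read-out, biochemical high-throughput dose-response screen for MsrA inhibitors, confirmatory; recombinant bovine MsrA coupled to E. coli TrxB with NADPH and selenocystamine; potency is for inhibitors of MsrA activity on DMSO substrate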
T6 sequence (P54149 whole entry): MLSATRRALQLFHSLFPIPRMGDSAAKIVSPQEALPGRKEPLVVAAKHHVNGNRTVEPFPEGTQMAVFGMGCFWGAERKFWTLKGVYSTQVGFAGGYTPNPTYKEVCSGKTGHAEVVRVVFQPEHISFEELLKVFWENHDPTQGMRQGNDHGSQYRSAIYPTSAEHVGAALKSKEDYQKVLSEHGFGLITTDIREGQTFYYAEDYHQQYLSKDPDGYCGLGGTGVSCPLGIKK

With `COc1ccc(C2=[N+](C)CCn3cccc32)c(OC)c1` the IC50 (Coagulation factor XII) was > 50 µM (inactive) and the IC50 (Protein Wnt-3a) was 7 µM (active).

In the case of `Cc1noc(C)c1COC(=O)c1cnc(Cl)c(Cl)c1`, the IC50 [1] is reported as 10 µM (active) and the IC50 [2] is reported as 5.01 µM (active).

In the case of `CCOc1cc(NC(=O)c2cccs2)c(OCC)cc1NC(=O)c1ccco1`, the IC50 (Estrogen receptor beta) is reported as > 50 µM (not active), the EC50 (Melanocortin receptor 4 [3]) is reported as > 89.1 µM (inactive) and the AC50 (Cytochrome P450 2D6) is reported as 0.708 µM (inconclusive). For the same compound, the AC50 (Cytochrome P450 3A4) was 0.178 µM (inconclusive) and the AC50 (Cytochrome P450 2C9) was 0.0355 µM (inconclusive).

In the case of `CCOC(=O)CCC(=O)Nc1ccc(S(=O)(=O)N2CCc3ccccc32)cc1`, the IC50 (Melanocortin receptor 4 [4]) is reported as > 64.6 µM (inactive) and the IC50 [5] is reported as > 64.6 µM (inactive).

With `CCOC(=O)c1cc(C)nc(S(C)(=O)=O)c1C#N` the IC50 (Melanocortin receptor 4 [4]) was > 64.6 µM (inactive) and the IC50 [5] was > 64.6 µM (inactive).

With `COc1ccc(NC(=O)c2ccc(Cl)nc2)cc1S(=O)(=O)N1CCOCC1` the AC50 [6] was 2.27 µM (active).

For `COc1ccc(C(=O)C[n+]2cccc(C)c2)cc1`, the IC50 [1] was 2.43 µM (active) and the IC50 [2] was 2.05 µM (active).

With `C[C@@H]1CN([C@@H](C)CO)C(=O)c2cccc(NC(=O)Nc3cccc4ccccc34)c2O[C@H]1CN(C)C(=O)NC1CCCCC1` the AC50 [7] was 37.8 µM (active), the AC50 (INS1) was 24.6 µM (active) and the AC50 [8] was 5.39 µM (active).

In the case of `COc1ccccc1S(=O)(=O)N(C)C[C@@H]1Oc2c(NC(=O)Nc3cccc4ccccc34)cccc2C(=O)N([C@@H](C)CO)C[C@H]1C`, the AC50 [7] is reported as 45.1 µM (active) and the AC50 (INS1) is reported as 47.2 µM (active).

For `N#CSCSc1nc2ccccc2s1`, the AC50 [9] was 50.1 µM (inconclusive).

With `O=C(O)c1coc(-c2ccc(F)cc2)n1` the EC50 [10] was > 100 µM (inactive).

In the case of `CN(/N=C/c1ccc(N(C)C)cc1)C1=NS(=O)(=O)c2ccccc21`, the IC50 (Beta Lactamase) is reported as 15 µM (inactive), the EC50 (BJ [11]) is reported as 27.9 µM (active) and the EC50 (BJ [12]) is reported as 47 µM (active). For the same compound, the IC50 (Beta-lactamase [13]) was 13.4 µM (inactive), the EC50 (BJ [14]) was > 150 µM (not active) and the IC50 (Beta-lactamase [15]) was 23 µM (inactive). The EC50 [16] was 84.8 µM (active), the EC50 (Troponin, cardiac muscle) was 4.5 µM (active) and the EC50 [17] was > 99 µM (inactive). For the same compound, the EC50 [18] was > 99 µM (inactive).

With `Cc1cc(N=Cc2ccc(O)c(O)c2)c2ccccc2n1` the Ki (Aurora kinase A) was 0.0251 µM (active) and the Ki (Aurora kinase B) was 0.00631 µM (active).

With `c1ccc(C2Cc3cn[nH]c3C2)cc1` (stereo not drawn) the Ki [19] was 79.4 µM (active) and the Ki [20] was 15.8 µM (active).

For `COc1ccc(/C=N\NC(=O)/C(=C\Nc2nccc(C)n2)NC(=O)c2ccccc2)cc1`, the IC50 [21] was 149 µM (inactive).
